Laboratory results as given in PubChem BioAssay (NCI).
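48-hour exposure; five concentrations; linearly interpolated endpoints. TGI: total growth inhibition.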

What was measured:
Assay in all cases: inhibition of tumour cell growth, NCI panel, 48 h
MDA-MB-435 = system: MDA-MB-435
MDA-MB-231 breast = system: MDA-MB-231 breast
UACC-62 melanoma = system: UACC-62 melanoma
LOX IMVI melanoma = system: LOX IMVI melanoma
A549 NSCLC = system: A549 NSCLC
COLO 205 colon = system: COLO 205 colon
OVCAR-5 ovarian = system: OVCAR-5 ovarian
CAKI-1 renal = system: CAKI-1 renal
DU-145 prostate = system: DU-145 prostate
SNB-75 CNS = system: SNB-75 CNS
NCI-H226 lung = system: NCI-H226 lung
SK-OV-3 ovarian = system: SK-OV-3 ovarian
KM12 colon = system: KM12 colon
EKVX NSCLC = system: EKVX NSCLC
U251 CNS = system: U251 CNS
SF-539 CNS = system: SF-539 CNS
RPMI-8226 leukemia = system: RPMI-8226 leukemia
SK-MEL-5 melanoma = system: SK-MEL-5 melanoma
SW-620 colon = system: SW-620 colon
IGROV1 ovarian = system: IGROV1 ovarian
HOP-92 NSCLC = system: HOP-92 NSCLC
CCRF-CEM leukemia = system: CCRF-CEM leukemia
NCI-H522 lung = system: NCI-H522 lung
NCI/ADR-RES ovarian = system: NCI/ADR-RES ovarian
ACHN renal = system: ACHN renal
NCI-H23 lung = system: NCI-H23 lung
SNB-19 CNS = system: SNB-19 CNS
HS 578T breast = system: HS 578T breast
SF-295 CNS = system: SF-295 CNS
MCF7 breast = system: MCF7 breast
A498 renal = system: A498 renal
786-0 renal = system: 786-0 renal
UO-31 renal = system: UO-31 renal
OVCAR-8 ovarian = system: OVCAR-8 ovarian
HCC-2998 colon = system: HCC-2998 colon
K-562 leukemia = system: K-562 leukemia
SK-MEL-2 melanoma = system: SK-MEL-2 melanoma
HOP-62 NSCLC = system: HOP-62 NSCLC
HCT-116 colon = system: HCT-116 colon
HL-60(TB) leukemia = system: HL-60(TB) leukemia
HT29 colon = system: HT29 colon
MDA-N = system: MDA-N
HCT-15 colon = system: HCT-15 colon
TK-10 renal = system: TK-10 renal
NCI-H460 lung = system: NCI-H460 lung
UACC-257 melanoma = system: UACC-257 melanoma
OVCAR-3 ovarian = system: OVCAR-3 ovarian
SF-268 CNS = system: SF-268 CNS
MOLT-4 leukemia = system: MOLT-4 leukemia
OVCAR-4 ovarian = system: OVCAR-4 ovarian
M14 melanoma = system: M14 melanoma
T-47D breast = system: T-47D breast
SN12C renal = system: SN12C renal
BT-549 breast = system: BT-549 breast
RXF 393 renal = system: RXF 393 renal
SR leukemia = system: SR leukemia
MALME-3M melanoma = system: MALME-3M melanoma
SK-MEL-28 melanoma = system: SK-MEL-28 melanoma
PC-3 prostate = system: PC-3 prostate

Cc1ccc(C2(c3ccc(F)cc3)OC(=O)c3ccccc32)c(O)c1 (centres undefined)
TGI (MDA-MB-435): 31.6 µM | TGI (MDA-MB-231 breast): 46.1 µM | TGI (UACC-62 melanoma): 23 µM | TGI (LOX IMVI melanoma): 26.9 µM | TGI (A549 NSCLC): 47.2 µM | TGI (COLO 205 colon): 41.6 µM | TGI (OVCAR-5 ovarian): 28.5 µM | TGI (CAKI-1 renal): 24.9 µM | TGI (DU-145 prostate): 28.7 µM | TGI (SNB-75 CNS): 31.6 µM | TGI (NCI-H226 lung): 76.2 µM | TGI (SK-OV-3 ovarian): 26.4 µM | TGI (KM12 colon): 51.6 µM | TGI (EKVX NSCLC): 92.1 µM | TGI (U251 CNS): 46.2 µM | TGI (SF-539 CNS): 37.5 µM | TGI (RPMI-8226 leukemia): 59.8 µM | TGI (SK-MEL-5 melanoma): 33.8 µM | TGI (SW-620 colon): 30.6 µM | TGI (IGROV1 ovarian): 34 µM | TGI (HOP-92 NSCLC): 34.9 µM | TGI (CCRF-CEM leukemia): 94.2 µM | TGI (NCI-H522 lung): 35.9 µM | TGI (NCI/ADR-RES ovarian): 46.8 µM | TGI (ACHN renal): 28.2 µM | TGI (NCI-H23 lung): 44.9 µM | TGI (SNB-19 CNS): 38.1 µM | TGI (HS 578T breast): 77.4 µM | TGI (SF-295 CNS): 24.5 µM | TGI (MCF7 breast): 37.5 µM | TGI (A498 renal): 36.7 µM | TGI (786-0 renal): 32.1 µM | TGI (UO-31 renal): 22.4 µM | TGI (OVCAR-8 ovarian): 48 µM | TGI (HCC-2998 colon): 38.4 µM | TGI (K-562 leukemia): > 100 µM | TGI (SK-MEL-2 melanoma): 30.2 µM | TGI (HOP-62 NSCLC): 28.8 µM | TGI (HCT-116 colon): 26.2 µM | TGI (HL-60(TB) leukemia): 41.9 µM | TGI (HT29 colon): > 100 µM | TGI (MDA-N): 24.3 µM | TGI (HCT-15 colon): 32.7 µM | TGI (TK-10 renal): 29.6 µM | TGI (NCI-H460 lung): 35.5 µM | TGI (UACC-257 melanoma): 31 µM | TGI (OVCAR-3 ovarian): 17.9 µM | TGI (SF-268 CNS): 86.7 µM | TGI (MOLT-4 leukemia): 76.3 µM | TGI (OVCAR-4 ovarian): 41.1 µM | TGI (M14 melanoma): 30.1 µM | TGI (T-47D breast): 28.1 µM | TGI (SN12C renal): 27.9 µM | TGI (BT-549 breast): 44.6 µM

O=C(O)c1nc2ccc(C(F)(F)F)cc2nc1Nc1ccc(F)cc1
TGI (MDA-MB-435): 44.7 µM | TGI (MDA-MB-231 breast): 65.6 µM | TGI (UACC-62 melanoma): 27.9 µM | TGI (LOX IMVI melanoma): 53.3 µM | TGI (COLO 205 colon): 44.1 µM | TGI (OVCAR-5 ovarian): 64.3 µM | TGI (RXF 393 renal): 31.5 µM | TGI (CAKI-1 renal): 78 µM | TGI (DU-145 prostate): 85 µM | TGI (SNB-75 CNS): 60 µM | TGI (NCI-H226 lung): 57 µM | TGI (KM12 colon): 63 µM | TGI (EKVX NSCLC): 73.9 µM | TGI (U251 CNS): > 100 µM | TGI (SR leukemia): 36.8 µM | TGI (SK-MEL-5 melanoma): > 100 µM | TGI (SW-620 colon): 82.2 µM | TGI (IGROV1 ovarian): 62.6 µM | TGI (MALME-3M melanoma): 38.3 µM | TGI (NCI-H522 lung): 24.7 µM | TGI (NCI/ADR-RES ovarian): 84.7 µM | TGI (ACHN renal): > 100 µM | TGI (NCI-H23 lung): 37.6 µM | TGI (SK-MEL-28 melanoma): > 100 µM | TGI (HS 578T breast): 96.4 µM | TGI (SF-295 CNS): 37.7 µM | TGI (MCF7 breast): 61.5 µM | TGI (PC-3 prostate): 48 µM | TGI (A498 renal): 37.6 µM | TGI (786-0 renal): 54.5 µM | TGI (UO-31 renal): 24.6 µM | TGI (OVCAR-8 ovarian): 83.8 µM | TGI (HCC-2998 colon): 34.3 µM | TGI (K-562 leukemia): 43.4 µM | TGI (SK-MEL-2 melanoma): 34.8 µM | TGI (HOP-62 NSCLC): 34.7 µM | TGI (HCT-116 colon): 35 µM | TGI (HL-60(TB) leukemia): 33.3 µM | TGI (HT29 colon): > 100 µM | TGI (MDA-N): 79.6 µM | TGI (HCT-15 colon): 70.2 µM | TGI (TK-10 renal): > 100 µM | TGI (NCI-H460 lung): 50.9 µM | TGI (UACC-257 melanoma): 78.1 µM | TGI (OVCAR-3 ovarian): 60.8 µM | TGI (SF-268 CNS): 48.1 µM | TGI (MOLT-4 leukemia): 28.9 µM | TGI (OVCAR-4 ovarian): > 100 µM | TGI (SN12C renal): 85.6 µM | TGI (BT-549 breast): 44.2 µM
